Results as given in patent US12415794B2 (Edgewise Therapeutics, Inc., priority 2018, dated 2025).

Legend:
[1] = target: skeletal myofibrils (myosin ATPase); experiment: Skeletal Myofibril ATPase Assay; format: biochemical
Description: FIG. 7 depicts the buffer preparation procedures of Buffer A and Buffer B for the skeletal myofibril ATPase assay described in Example 12. Buffers were stored on ice until use.
Example 12: Skeletal Myofibril ATPase Assay
(§1) Overview: Myosin ATPase activity is assessed by using a coupled reaction system, in which ADP generated by the myosin ATPase function is coupled to the disappearance of NADH through the pyruvate kinase/lactate dehydrogenase (PK-LDH) system. ATPase activity produces ADP, which is used as a substrate for PK to produce pyruvate and regenerate ATP. The pyruvate is then used as a substrate by LDH to oxidize NADH to NAD+. The rate of the reaction is monitored through the time-dependent disappearance of NADH using absorbance at 340 nm. Inhibition of ATPase activity by the assayed compounds is indicated by a reduced rate of NADH loss, relative to vehicle-treated controls, over the experimental time window. To assess the selectivity of the assayed compounds for skeletal myofibrils, the compounds are counter-screened in cardiac myofibrils.
Materials: The following stock solutions and reagents were used in the Skeletal Myofibril ATPase Assay:
Stock Solutions of pCa buffer. Combine PIPES, CaCl2, and EGTA solutions with 70 mL of water. Adjust pH to 7.0 and bring final volume to 100 mL.
Skeletal Myofibril ATPase Assay Procedure: BSA, ATP, NADH, PEP, and DTT solutions were thawed at room temperature, then transferred to ice. Pellet-frozen myofibrils were transferred with approximately twice the required volume into a sufficiently large tube and capped. Myofibrils were thawed by rolling in a water bath for approximately 15 min at room temperature and cooled on ice. Buffers A and B were prepared by adjusting volumes as necessary for required number of wells and stored on ice. 0.5 μL of the compounds to be assayed were added into wells. 25 μL of Buffer A was dispensed into the wells, followed by 25 μL of Buffer B. The wells were measured for absorbance at 340 nm, using a kinetic protocol in which the wells are read every 1.5-2 min for 45 min. The slope of the data was approximated by subtracting the minimum absorbance value from the maximum value for each well. This was accomplished either in the SoftMax Pro software or in a spreadsheet program such as Excel. Using GraphPad Prism 8.0, the data was normalized by assigning a value of 100% to the 1% DMSO vehicle wells. Typically, a normalized 0% value was simply assigned to a (Max−Min) value of 0. The normalized data was fit to a Four Parameter Logistic sigmoidal equation, constraining the bottom to be 0 or greater. Compounds of Table 1, 2, and 3 were tested and results of the assay appear in Tables 4a-4c. A=IC50 is less than or equal to 10 μM; B=IC50 is greater than 10 μM and less than 100 μM; C=IC50 is greater than 100 μM.

[2] = target: T1, cardiac myofibrils (myosin ATPase); experiment: Cardiac Myofibril ATPase Assay (counter screen); format: biochemical; conditions: myofibrils 1.0 mg/mL, KCl omitted
T1 construct: frozen myofibril pellets obtained from cardiac tissue; from tissue
Description: as §1
Example 13: Cardiac Myofibril ATPase Assay
Following example 11, the counter screen was done using frozen myofibril pellets obtained from cardiac tissue. The assay was done in the same manner as above, with the following notable exceptions: the final well concentration of myofibrils was 1.0 mg/mL and KCl was omitted from the recipe.
Compounds of Table 1 to 3 were tested, and results of the assays appear in Tables 5a-5c herein. A=IC50 is less than or equal to 10 μM; B=IC50 is greater than 10 μM and less than 100 μM; C=IC50 is greater than 100 μM; and […].

T1 sequence (P12883 whole entry): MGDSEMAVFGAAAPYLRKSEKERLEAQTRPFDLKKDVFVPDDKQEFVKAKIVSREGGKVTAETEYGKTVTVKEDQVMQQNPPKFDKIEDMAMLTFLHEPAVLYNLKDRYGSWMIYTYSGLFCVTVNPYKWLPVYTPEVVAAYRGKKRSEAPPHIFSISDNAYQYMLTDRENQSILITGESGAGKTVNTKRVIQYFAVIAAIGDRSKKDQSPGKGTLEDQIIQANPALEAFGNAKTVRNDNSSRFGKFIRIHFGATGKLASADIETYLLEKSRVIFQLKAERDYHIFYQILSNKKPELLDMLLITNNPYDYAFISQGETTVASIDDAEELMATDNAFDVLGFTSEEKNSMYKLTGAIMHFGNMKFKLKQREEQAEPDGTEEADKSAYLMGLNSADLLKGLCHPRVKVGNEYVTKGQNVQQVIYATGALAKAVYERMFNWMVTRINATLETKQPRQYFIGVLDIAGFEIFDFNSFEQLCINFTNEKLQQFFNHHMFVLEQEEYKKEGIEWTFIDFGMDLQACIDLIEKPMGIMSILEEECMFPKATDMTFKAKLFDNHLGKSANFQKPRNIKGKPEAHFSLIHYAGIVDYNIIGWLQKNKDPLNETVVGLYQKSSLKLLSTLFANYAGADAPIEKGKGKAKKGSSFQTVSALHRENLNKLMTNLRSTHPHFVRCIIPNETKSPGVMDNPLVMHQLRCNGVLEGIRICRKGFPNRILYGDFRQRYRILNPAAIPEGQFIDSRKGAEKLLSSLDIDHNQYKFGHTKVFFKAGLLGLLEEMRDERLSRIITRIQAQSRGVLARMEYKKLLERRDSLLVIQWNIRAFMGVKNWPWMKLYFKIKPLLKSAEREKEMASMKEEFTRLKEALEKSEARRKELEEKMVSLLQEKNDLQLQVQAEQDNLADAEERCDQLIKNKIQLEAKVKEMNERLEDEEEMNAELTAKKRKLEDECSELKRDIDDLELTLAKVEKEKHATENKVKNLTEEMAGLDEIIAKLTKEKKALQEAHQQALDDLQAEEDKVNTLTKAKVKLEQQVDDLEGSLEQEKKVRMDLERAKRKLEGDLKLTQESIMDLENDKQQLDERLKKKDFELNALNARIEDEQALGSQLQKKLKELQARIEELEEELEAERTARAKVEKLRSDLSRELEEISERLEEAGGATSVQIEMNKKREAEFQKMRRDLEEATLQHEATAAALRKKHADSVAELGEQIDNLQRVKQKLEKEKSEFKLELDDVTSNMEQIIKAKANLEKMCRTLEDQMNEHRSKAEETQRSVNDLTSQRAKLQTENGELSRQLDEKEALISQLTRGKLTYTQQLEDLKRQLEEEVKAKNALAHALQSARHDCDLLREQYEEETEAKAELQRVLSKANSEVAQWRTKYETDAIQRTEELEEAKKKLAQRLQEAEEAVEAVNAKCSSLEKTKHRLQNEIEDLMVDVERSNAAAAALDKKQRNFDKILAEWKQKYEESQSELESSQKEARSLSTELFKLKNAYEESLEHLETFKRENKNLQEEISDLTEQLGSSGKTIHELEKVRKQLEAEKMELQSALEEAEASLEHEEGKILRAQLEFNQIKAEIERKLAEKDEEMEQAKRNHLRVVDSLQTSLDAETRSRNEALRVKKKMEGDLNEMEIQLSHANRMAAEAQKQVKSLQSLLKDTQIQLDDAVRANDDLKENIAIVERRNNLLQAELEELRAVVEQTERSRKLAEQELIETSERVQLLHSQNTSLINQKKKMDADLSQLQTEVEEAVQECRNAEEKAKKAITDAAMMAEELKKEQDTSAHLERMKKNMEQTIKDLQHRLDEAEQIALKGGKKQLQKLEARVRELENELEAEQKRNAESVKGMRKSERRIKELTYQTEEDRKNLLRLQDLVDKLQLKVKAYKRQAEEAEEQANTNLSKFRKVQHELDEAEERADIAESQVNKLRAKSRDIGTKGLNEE
T1 sequence (P08590 whole entry partner): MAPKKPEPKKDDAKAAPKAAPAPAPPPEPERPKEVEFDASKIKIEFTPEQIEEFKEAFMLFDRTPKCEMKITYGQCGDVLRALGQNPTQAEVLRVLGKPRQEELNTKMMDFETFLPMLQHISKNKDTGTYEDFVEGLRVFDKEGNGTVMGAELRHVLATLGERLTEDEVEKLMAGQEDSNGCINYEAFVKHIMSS
T1 sequence (P10916 whole entry partner): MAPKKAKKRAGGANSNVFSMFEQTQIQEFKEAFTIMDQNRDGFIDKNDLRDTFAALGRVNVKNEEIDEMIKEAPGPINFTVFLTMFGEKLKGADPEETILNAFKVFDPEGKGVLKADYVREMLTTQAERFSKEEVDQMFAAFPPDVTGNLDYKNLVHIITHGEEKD

Structure (SMILES)	IC50 ([1]; Table 4A) [µM]	IC50 ([1]; Table 4C) [µM]	IC50 ([2]; Table 5C) [µM]	other results
CC(C)c1cccc(NC(=O)Cn2nc(-c3ccc4c(c3)OCCCO4)ccc2=O)c1 [IIIb-5, 2-(3-(3,4-dihydro-2H-benzo[b][1,4]dioxepin-7-yl)-6-oxopyridazin-1(6H)-yl)-N-(3-isopropylphenyl) acetamide]	–	< 10	10 to 100	–
O=C(Cn1nc(-c2ccc3c(c2)OCCO3)ccc1=O)Nc1ccccc1F [IIIb-6, 2-(3-(2,3-dihydrobenzo[b][1,4]dioxin-6-yl)-6-oxopyridazin-1(6H)-yl)-N-(2-fluorophenyl)acetamide]	–	< 10	10 to 100	–
COc1ccc(-c2ccc(=O)n(CC(=O)NC3CCCC3)n2)cc1OC [IIIb-45, N-cyclopentyl-2-(3-(3,4-dimethoxyphenyl)-6-oxopyridazin-1(6H)-yl)acetamide]	–	> 100	> 100	–
Cn1ccc2c(NC(=O)Cn3nc(-c4ccc(F)cc4)ccc3=O)cccc21 [IIIc-16, 2-(3-(4-fluorophenyl)-6-oxopyridazin-1(6H)-yl)-N-(1-methyl-1H-indol-4-yl)acetamide]	–	< 10	> 100	–
O=C(Cn1nc(-c2ccccc2)ccc1=O)Nc1ccccc1C(F)(F)F [IIIc-52, 2-(6-oxo-3-phenylpyridazin-1(6H)-yl)-N-(2-(trifluoromethyl)phenyl)acetamide]	–	10 to 100	> 100	–
COc1ccc(-c2ccc(=O)n(CC(=O)NCc3cc(Cl)ccc3Cl)n2)cc1	–	< 10	> 100	–
CCC1CCC(CNC(=O)Cn2nc(-c3ccccc3)ccc2=O)CC1 (centres unmarked) [IIIc-55, N-((4-ethylcyclohexyl)methyl)-2-(6-oxo-3-phenylpyridazin-1(6H)-yl)acetamide]	–	10 to 100	> 100	–
CCOc1ccc(-c2ccc(=O)n(CC(=O)NC(C)C)n2)cc1 [IIIa-6, 2-(3-(4-ethoxyphenyl)-6-oxopyridazin-1(6H)-yl)-N-isopropylacetamide]	–	< 10	> 100	–
CCNC(=O)Cn1nc(-c2ccc(OCC(F)(F)F)cc2)ccc1=O [II-6, N-ethyl-2-(6-oxo-3-(4-(2,2,2-trifluoroethoxy)phenyl)pyridazin-1(6H)-yl)acetamide]	–	–	–	IC50 ([1]; Table 4B): < 10 µM; IC50 ([2]; Table 5B): > 100 µM
COc1ccc(-c2ccc(=O)n(CC(=O)NCCC(C)C)n2)c(F)c1 [IIIb-57, 2-(3-(2-fluoro-4-methoxyphenyl)-6-oxopyridazin-1(6H)-yl)-N-isopentylacetamide]	–	> 100	> 100	–
O=C(Cn1nc(-c2ccccc2)ccc1=O)Nc1ccccc1F [IIIc-66, N-(2-fluorophenyl)-2-(6-oxo-3-phenylpyridazin-1(6H)-yl)acetamide]	–	> 100	> 100	–
COc1ccc(-c2ccc(=O)n(CC(=O)NCc3ccon3)n2)cc1 [IIIa-26]	–	10 to 100	> 100	–
CC(=O)Nc1ccc(-c2ccc(=O)n(CC(=O)NCc3ccccc3Cl)n2)cc1 [II-8, 2-(3-(4-acetamidophenyl)-6-oxopyridazin-1(6H)-yl)-N-(2-chlorobenzyl) acetamide]	–	–	–	IC50 ([1]; Table 4B): < 10 µM
CCNC(=O)Cn1nc(-c2ccc(N3CC4CC(C3)O4)nc2)ccc1=O [Compound I-43, 2-(3-(6-(6-oxa-3-azabicyclo[3.1.1]heptan-3-yl)pyridin-3-yl)-6-oxopyridazin-1(6H)-yl)-N-ethylacetamide]	10 to 100	–	–	–

More lines, main results first:

IC50 ([1]; Table 4A) [µM]	IC50 ([1]; Table 4C) [µM]	IC50 ([2]; Table 5C) [µM]	Structure (SMILES)	other results
> 100	–	–	CCNC(=O)Cn1nc(-c2ccc(OCCN(C)C)nc2)ccc1=O [Compound I-26, 2-(3-(6-(2-(dimethylamino)ethoxy)pyridin-3-yl)-6-oxopyridazin-1(6H)-yl)-N-ethylacetamide]	IC50 ([2]; Table 5A): > 100 µM
10 to 100	–	–	CCNC(=O)Cn1nc(-c2ccc(N3CC(COC(F)(F)F)C3)nc2)ccc1=O [Compound I-40, N-ethyl-2-(6-oxo-3-(6-(3-((trifluoromethoxy)methyl)azetidin-1-yl)pyridin-3-yl)pyridazin-1(6H)-yl)acetamide]	–
10 to 100	–	–	O=C(Cn1nc(-c2ccc(OC(F)F)nc2)ccc1=O)N[C@H]1CC12CC2 [Compound I-17, (S)-2-(3-(6-(difluoromethoxy)pyridin-3-yl)-6-oxopyridazin-1(6H)-yl)-N-(spiro[2.2]pentan-1-yl)acetamide]	IC50 ([2]; Table 5A): > 100 µM
10 to 100	–	–	CC1(NC(=O)Cn2nc(-c3ccc(OC(F)F)nc3)ccc2=O)CCC1 [Compound I-15, 2-(3-(6-(difluoromethoxy)pyridin-3-yl)-6-oxopyridazin-1(6H)-yl)-N-(1-methylcyclobutyl)acetamide]	IC50 ([2]; Table 5A): > 100 µM
< 10	–	–	CCNC(=O)Cn1nc(-c2ccc(NC34CC(C)(C3)C4)nc2)ccc1=O [Compound I-60, N-ethyl-2-(3-(6-((3-methylbicyclo[1.1.1]pentan-1-yl)amino)pyridin-3-yl)-6-oxopyridazin-1(6H)-yl)acetamide]	IC50 ([2]; Table 5A): > 100 µM
< 10	–	–	CCNC(=O)Cn1nc(-c2cnc(OCC(F)(F)F)nc2)ccc1=O [Compound I-8, N-ethyl-2-(6-oxo-3-(2-(2,2,2-trifluoroethoxy)pyrimidin-5-yl)pyridazin-1(6H)-yl)acetamide]	IC50 ([2]; Table 5A): > 100 µM
< 10	–	–	O=C(Cn1nc(-c2ccc(NC34CC(C3)C4)nc2)ccc1=O)NC12CC(C1)C2 [Compound I-46, N-(bicyclo[1.1.1]pentan-1-yl)-2-(3-(6-(bicyclo[1.1.1]pentan-1-ylamino)pyridin-3-yl)-6-oxopyridazin-1(6H)-yl)acetamide]	–
< 10	–	–	COc1ccc(-c2ccc(=O)n(CC(=O)NCc3ccccc3Cl)n2)cn1 [Compound I-5, N-(2-chlorobenzyl)-2-(3-(6-methoxypyridin-3-yl)-6-oxopyridazin-1(6H)-yl)acetamide]	IC50 ([2]; Table 5A): > 100 µM
< 10	–	–	CC[C@H](C)NC(=O)Cn1nc(-c2ccc(OC(F)F)nc2)ccc1=O [Compound I-67, (S)-N-(sec-butyl)-2-(3-(6-(difluoromethoxy)pyridin-3-yl)-6-oxopyridazin-1(6H)-yl)acetamide]	–
< 10	–	–	CCNC(=O)Cn1nc(-c2ccc(NC)nc2)ccc1=O [Compound I-47, N-ethyl-2-(3-(6-(methylamino)pyridin-3-yl)-6-oxopyridazin-1(6H)-yl)acetamide]	–
10 to 100	–	–	CCNC(=O)Cn1nc(-c2cnc(OCCOC(F)(F)F)nc2)ccc1=O [Compound I-49, N-ethyl-2-(6-oxo-3-(2-(2-(trifluoromethoxy)ethoxy)pyrimidin-5-yl)pyridazin-1(6H)-yl)acetamide]	–
10 to 100	–	–	O=C(Cn1nc(-c2ccc(NC34CC(C3)C4)nc2)ccc1=O)N1CCC1 [Compound I-39, 2-(2-(azetidin-1-yl)-2-oxoethyl)-6-(6-(bicyclo[1.1.1]pentan-1-ylamino)pyridin-3-yl)pyridazin-3(2H)-one]	–
10 to 100	–	–	CCNC(=O)Cn1nc(-c2ccc(NC34CCC(CC3)CC4)nc2)ccc1=O [Compound I-41, 2-(3-(6-(bicyclo[2.2.2]octan-1-ylamino)pyridin-3-yl)-6-oxopyridazin-1(6H)-yl)-N-ethylacetamide]	–
< 10	–	–	CCNC(=O)Cn1nc(-c2ccc(N3CCCC3C(F)(F)F)nc2)ccc1=O (centres unmarked) [Compound I-48, N-ethyl-2-(6-oxo-3-(6-(2-(trifluoromethyl)pyrrolidin-1-yl)pyridin-3-yl)pyridazin-1(6H)-yl)acetamide]	–
10 to 100	–	–	CCNC(=O)Cn1nc(-c2cnc(NC34CC(O)(C3)C4)nc2)ccc1=O [Compound I-42, N-ethyl-2-(3-(2-((3-hydroxybicyclo[1.1.1]pentan-1-yl)amino)pyrimidin-5-yl)-6-oxopyridazin-1(6H)-yl)acetamide]	–
